In patent EP2604600A1, “Isatin derivatives and their use in therapy” (priority 2011, dated 2013):
Converted amounts (≈) assume the structure as drawn.

How the values were obtained:
Experiment in all cases: microbe, parasite or virus in culture
Type in all cases: cell-based
[1] = system: ATCC 35820 Streptomycin Resistant; details: Mycobacterium tuberculosis, ATCC35820, 48 h
[2] = system: ATCC 35821 Para-aminosalicylic Resistant; details: Mycobacterium tuberculosis, ATCC35821, 48 h
[3] = system: ATCC 35822 Isoniazid Resistant; details: Mycobacterium tuberculosis, ATCC35822, 48 h
[4] = system: ATCC 35827 Kanamycin Resistant; details: Mycobacterium tuberculosis, ATCC35827, 48 h
[5] = system: ATCC 35830 Ethionamide Resistant; details: Mycobacterium tuberculosis, ATCC35830, 48 h
[6] = system: ATCC 35837 Ethambutol Resistant; details: Mycobacterium tuberculosis, ATCC35837, 48 h

In the case of `O=C1Nc2ccc(Cl)cc2C1=NNC(=O)c1ccncc1` [Compound 3a], the MIC [1] was 25 µg/mL (≈ 83.1 µM), the MIC [2] was 25 µg/mL (≈ 83.1 µM) and the MIC [3] was 10 µg/mL (≈ 33.3 µM). It also gave an MIC [4] of 25 µg/mL (≈ 83.1 µM), an MIC [5] of 10 µg/mL (≈ 33.3 µM) and an MIC [6] of 1.25 µg/mL (≈ 4.16 µM).

Work on `O=C1Nc2ccc([N+](=O)[O-])cc2C1=NNC(=O)c1ccncc1` [Compound 3c] yielded an MIC [1] of 156 µg/mL (≈ 501 µM), an MIC [2] of 156 µg/mL (≈ 501 µM) and an MIC [3] of 10 µg/mL (≈ 32.1 µM). For the same compound, the MIC [4] was 312 µg/mL (≈ 1000 µM), the MIC [5] was 0.5 µg/mL (≈ 1.61 µM) and the MIC [6] was 0.156 µg/mL (≈ 0.501 µM).

Compound `O=C1Nc2ccc(OC(F)(F)F)cc2C1=NNC(=O)c1ccc([N+](=O)[O-])o1` [Compound 3e] has an MIC [1] of 25 µg/mL (≈ 65.1 µM), an MIC [2] of 0.5 µg/mL (≈ 1.3 µM) and an MIC [3] of 5 µg/mL (≈ 13 µM). For the same compound, the MIC [4] was 5 µg/mL (≈ 13 µM), the MIC [5] was 0.5 µg/mL (≈ 1.3 µM) and the MIC [6] was 2.5 µg/mL (≈ 6.51 µM).

`O=C(NN=C1C(=O)N(Cc2ccccc2)c2ccccc21)c1ccc([N+](=O)[O-])o1` [Compound 3g] gave an MIC [1] of 78 µg/mL (≈ 200 µM), an MIC [2] of 312 µg/mL (≈ 799 µM) and an MIC [3] of 156 µg/mL (≈ 400 µM). It also gave an MIC [4] of 156 µg/mL (≈ 400 µM), an MIC [5] of 156 µg/mL (≈ 400 µM) and an MIC [6] of 0.156 µg/mL (≈ 0.4 µM).
